Columns and labels:
[1] = tested on: MDA, ALT (GPT), IL-6 in liver extracts of DEN-administered rats; assay: Liver lipid peroxidation, hepatic injury and inflammatory markers after DEN administration; type: in vivo, rats (F344); conditions: rat liver extract 24 h after DEN 100 mg/kg i.p.; 500 μM solution at 4 ml/kg 1 h after DEN; vs DEN group; FIG. 5
Method: (§1) Six week-old male rats (F344) were divided into 4 groups, and as a control, rats in Group 1 were administered with saline (PBS) by intraperitoneal injection. Rats in Groups 2-4 were administered with DEN at 100 mg/kg by intraperitoneal injection.
(§2) One hour after DEN administration, physiological saline was administered to rats in Group 2 by intraperitoneal injection, rats in Group 3 were administered with a 500 μM OH-Pen solution at 4 ml/kg, and rats in Group 4 were administered with a 500 μM OH-Pen-NOMe solution at 4 ml/kg.
Twenty-four hours after DEN administration, livers were excised from rats in the respective groups and lipid extraction was carried out. For extracts, amounts of malondialdehyde; MDA as a peroxidized lipid marker, alanine transaminase (glutamate pyruvate transferase; ALT (GPT)) as a hepatic injury marker, and interleukin-6; IL-6 as an inflammatory marker were measured.

hepatocellular carcinoma = assay: Hepatocellular carcinogenesis three months after DEN administration, number of tumor foci; type: in vivo, rats (F344); conditions: rats three months after DEN 100 mg/kg i.p.; 500 μM solution at 4 ml/kg 1 h after DEN; FIG. 6
Method: as §1, §2
Three months after DEN administration, rats in the respective groups were subjected to mixed anesthesia of 3 species, and they were sacrificed and livers were taken out promptly. Photographs of the livers taken from the rats of the respective groups are shown in FIG. 6, and the result of counting the number of tumor foci is shown in FIG. 6b.

[2] = Reactivity of NBD-nitroxide with lipid radicals by fluorometry; conditions: for fluorescence intensity on reaction with lipid radical: lipid radical produced using lipoxygenase (LOX) for LA, ALA or AA, FIG. 3
Method: (§3) In order to investigate reaction selectivities of the above three types of NBD-nitroxide (NBD-Me, NBD-Et and NBD-Pen), reactivities with various ROS and lipid radical were evaluated by fluorometry. […] In addition, in the reaction with these compounds, no significant difference in fluorescence intensity was observed between these nitroxides, and there was no difference between the 2nd and 6th position substituents.

[3] = Reactivity of NBD-nitroxide with reactive oxygen species by fluorometry; conditions: hydrogen peroxide, hypochlorous acid
Method: as §3

[4] = tested on: human umbilical vein endothelial cell (HUVEC); assay: Cytotoxicity of NBD-nitroxide, viable cell count; type: cell-based; conditions: viable cells after incubation for 24 hours
Method: Cytotoxicity of NBD-nitroxide was evaluated using human umbilical vein endothelial cell (HUVEC). When each concentration of the compound was added to HUVEC and the number of viable cells after incubation for 24 hours was counted, cytotoxicity was not observed up to 10 μM in any NBD-nitroxide.

[5] = Scavenging of lipid radicals in hepatocellular carcinoma model mouse, LC/FL/MS of liver lipid extract; type: in vivo, mice (C57BL/6J)
Method: It is appropriately selected according to the present invention, but not limited to, HPLC analysis is performed in this Example by injecting 10 μL of a sample solution into an InertSusteain® C18 analytical column (filled with ES silica having a particle size of 3 μm, 2.0×150 mm) manufactured by Mitsubishi Chemical Corporation, which is eluted with a mobile phase (A: 5.0 mM ammonium acetate in H2O, B:ACN:H2O (95:5)) at 40° C. at a rate of 0.4 ml/min. The time program of mobile phase elution was set to B %: 0 to 22 min; 60%, 22 to 60 min; 80%, 60 to 70 min; 100%.
For each fraction eluted, fluorescence observation from NBD-Pen was performed at excitation wavelength (470 nm) and emission wavelength (530 nm) with a fluorescence detector (RF-20A xs manufactured by Shimadzu Corporation).
Next, each fraction thus obtained was introduced into an ion detector (Q Exactive™ Hibrid Quadrupole-Orbitrap™ MS manufactured by Thermo Fisher Scientific Co., Ltd.) by electrospray ionization (ESI) and subjected to mass spectrometry.
Male mice (C57BL/6J) at 8 weeks of age were divided into two groups. As a control, physiological saline (PBS) was administered to mice in Group 1 by intraperitoneal injection. DEN at 100 mg/kg was administered to mice in Group 2 by intraperitoneal injection.
Four hours after DEN administration, a 500 μM NBD-Pen solution was administered at 4 ml/kg to mice in Groups 1 and 2 by intraperitoneal injection.
Fifteen minutes after administration of NBD-Pen, livers were excised from the mice in the respective groups and lipid extraction was performed. LC/FL/MS analysis was performed on extracts under the same conditions as in Example 1. The structure of the radical adduct was analyzed by comparing the fluorescence peak observed at the LC/FL site with the precise mass analysis result at that column retention time. The results are described in Table 2 and FIG. 11.

[6] = superoxide anion radical, hydroxy radical or nitric oxide, FIG. 3
[7] = Gr. 1, no DEN (PBS), mouse liver 15 min after 500 μM NBD-Pen 4 ml/kg i.p.
[8] = Gr. 2, DEN 100 mg/kg i.p., NBD-Pen 500 μM 4 ml/kg i.p. 4 h after DEN, liver 15 min later

Row | Compound | alanine transaminase ALT (GPT), hepatic injury marker [1] | interleukin-6 (IL-6), inflammatory marker [1] | malondialdehyde (MDA), peroxidized lipid marker [1] | hepatocellular carcinogenesis (number of tumor foci) (hepatocellular carcinoma) | fluorescence intensity on reaction with lipid radical [2] | fluorescence on reaction with reactive oxygen species [3, 6] | further results
1 | CCCCCC1(C)CC(O)CC(C)(C)N1[O] (centres unmarked) [OH-Pen, 4-hydroxy-2,2,6-trimethyl-6-pentylpiperidine-1-oxyl] | significantly decreased | significantly decreased | significantly decreased | suppressed hepatocellular carcinogenesis |  |  | 
2 | CCCCCC1(C)CC(O)CC(C)(C)N1OC (centres unmarked) [OH-Pen-NOMe, 4-hydroxy-1-methoxy-2,2,6-trimethyl-6-pentylpiperidine-1-oxyl] | almost no drop | almost no drop | almost no drop | not suppressed at all |  |  | 
3 | CC1(C)CC(Nc2ccc([N+](=O)[O-])c3nonc23)CC(C)(C)N1[O] [NBD-Me] |  |  |  |  | significantly elevated | fluorescence did not increase much | 
4 | CCC1(CC)CC(Nc2ccc([N+](=O)[O-])c3nonc23)CC(CC)(CC)N1[O] [NBD-Et] |  |  |  |  | significantly elevated | fluorescence did not increase much | 
5 | 2,2,6-trimethyl-4-(4-nitrobenzo[1,2,5]oxadiazol-7-ylamino)-6-pentylpiperadine-1-oxyl [NBD-Pen] |  |  |  |  | significantly elevated | fluorescence did not increase much | reactivity with the lipid radicals and thermal stability of nitroxide-lipid complex, comparison among Compounds A to C [2]: predominant; fluorescence intensity on reaction with lipid radicals ([2]; LA, ALA, AA activated with LOX, AAPH or MeO-AMVN, FIG. 4): remarkably increased; concentration up to which cytotoxicity was not observed [4]: > 10 µM; fluorescence on reaction with reactive oxygen species ([3]; superoxide anion radical or hydroxy radical, FIG. 4): fluorescence did not increase much; Fluorescent intensity of NBD-Pen-R (a.u.) R [5, 7]: 29.72 a.u.; Fluorescent intensity of NBD-Pen-R (a.u.) R C2H5 [5, 7]: 72.95 a.u.; Fluorescent intensity of NBD-Pen-R (a.u.) R C3H7 [5, 7]: 143.69 a.u.; Fluorescent intensity of NBD-Pen-R (a.u.) R C5H11 [5, 7]: 393.38 a.u.; Fluorescent intensity of NBD-Pen-R (a.u.) R [5, 8]: 353.94 a.u.; Fluorescent intensity of NBD-Pen-R (a.u.) R C2H5 [5, 8]: 704.15 a.u.; Fluorescent intensity of NBD-Pen-R (a.u.) R C3H7 [5, 8]: 1604.07 a.u.; Fluorescent intensity of NBD-Pen-R (a.u.) R C5H11 [5, 8]: 3511.72 a.u.

From patent US11609238B2, “Method for detecting a radical compound derived from a lipid and a compound derived from the radical compound” (FUSO PHARMACEUTICAL INDUSTRIES, LTD., priority 2017, dated 2023)
